# In PubChem BioAssay AID2060895 (Molecular Pharmacology Branch, DTP, NCI, 2025):
# Tested on: PDC 899932-113-R3-J6 complex spheroid viability
# Experiment: Anticancer human tumor 899932-113-R3-J6-PDC patient-derived melanoma cell line growth inhibition [RAS]
# Conditions: for IC50: curve of first compound; for viability, T/C: stronger effect = lower value
# Description: RAS pathway inhibitors in Combinations in Complex Spheroids
# A high-throughput screen of multi-cell type tumor spheroids was designed to identify active combinations of RAS pathway inhibitors and targeted small molecules. Complex spheroids include a stromal component modeled by human endothelial cells (HUVEC) and fibroblasts modeled by human mesenchymal stem cells (MSCs). The concentration ranges selected for each drug and investigational agent were based upon clinically achievable concentrations if the clinical Cmax of the agent was known.
# Compounds. The drugs and investigational agents: abemaciclib (NSC768073), cobimetinib (NSC768068), divarasib (GDC6063, NSC841802), docetaxel (NSC628503), GDC-1971 (RLY-1971, NSC841576), gemcitabine (NSC613327), inavolisib (NSC800729), ipatasertib (NSC767898), KB-0742 (NSC834161), MRTX-1133 (NSC836407), osimertinib (NSC779217), RMC-4630 (NSC839698), RMC-6236 (NSC851965), RMC-6291 (NSC852671), Ro-3306 (NSC812927), sapanisertib (NSC764658), SN-38 (NSC673596), staurosporine (NSC755774), SY5609 (NSC837396), and tovorafenib (DAY101, NSC766906), were obtained from the National Cancer Institute (NCI) Developmental Therapeutics Program Chemical Repository. The FDA-approved anticancer drug set is available from the NCI Developmental Therapeutics Program. […] The stock solutions were prepared in dimethyl sulfoxide (DMSO, Sigma-Aldrich, St. Louis, MO, cat. D2650) at 800-fold the tested concentration and stored at -70 degrees C prior to their use. All drugs and investigational agents were tested over a range starting from a high concentration at or near the clinical Cmax and decreasing in half-log increments. If the clinical Cmax for an agent had not been determined, the highest concentration tested was 10 microM.
# Cell Culture. All cells were maintained in an incubator at 37 degrees C and 5% CO2 with 95% humidity. The PDC lines were cultured according to standard operating procedures established by the NCI PDMR. All PDCs were thawed and cultured in Matrigel-coated flasks prepared with a working solution of 1X Ham's F-12 nutrient mix, without supplementation (Invitrogen, Waltham, MA, cat. 11765054), 100 U/mL penicillin-streptomycin (Invitrogen, cat. 15140122), and 2.5% Matrigel (Corning Inc., Corning, NY, cat. 354248) for the first three passages. The 362531-283-R-J2-PDC and 782815-120-R-J1-PDC lines were cultured in 6C/Colon 1B media, which includes advanced DMEM/F-12 (Thermo Fisher Scientific, cat. 12634028), 10 mM HEPES (Thermo Fisher Scientific, cat. 15630080), 1X GlutaMAX supplement (Thermo Fisher Scientific, cat. 35050061), 0.1 mg/mL primocin (InvivoGen, San Diego, CA, cat. ant-pm-2), 10% defined fetal bovine serum, heat inactivated (HyClone Laboratories Inc., Logan, UT, cat. SH30070.03HI), 50% L-WRN conditioned media (ATCC, cat. CRL-3276), 1.25 mM N-Acetyl-L-cysteine (Sigma-Aldrich, cat. A9165), 10 mM nicotinamide (Sigma-Aldrich, cat. N0636), 1X B-27 supplement (Thermo Fisher Scientific, cat. 17504044), 1X N-2 supplement (Thermo Fisher Scientific, cat. 17502048), 50 ng/mL human EGF (Thermo Fisher Scientific, cat. PHG0311), and 10 microM Y-27632 dihydrochloride (Tocris Bioscience, cat. 1254). The K12877-001-R-J1-PDC line was cultured in 6I media, which includes all 6C/Colon 1B media plus 10 ng/mL human FGF-10 (PeproTech, cat. 100-26), 1 ng/mL human FGF-2 (PeproTech, cat. 100-18B), 1 µM prostaglandin E2 (Tocris Bioscience, cat. 2296), […] hydrocortisone (Sigma-Aldrich, cat. H4001), and […] bovine insulin (Sigma-Aldrich, cat. I6634). The K86415-001-R-J1-PDC line was cultured in 6D media, which includes all 6C/Colon 1B media components minus the L-WRN conditioned media. The 485176-168-R4-J1-PDC was cultured in PANC media, which includes all 6C/Colon 1B media plus 100 ng/mL human FGF-10 (PeproTech, cat. 100-26), 500 nM SB-431542 (Selleckchem, cat. S1067), and 10 nM gastrin (Tocris Bioscience, cat. 3006). […]
# [1] = second compound 0.0316 µM, first compound 0.0316 µM
# [2] = second compound 0.0316 µM, first compound 0.1 µM
# [3] = second compound 0.0316 µM, first compound 0.316 µM
# [4] = second compound 0.0316 µM, first compound 1 µM
# [5] = second compound 0.1 µM, first compound 0.0316 µM
# [6] = second compound 0.1 µM, first compound 0.1 µM
# [7] = second compound 0.1 µM, first compound 0.316 µM
# [8] = second compound 0.1 µM, first compound 1 µM
# [9] = second compound 0.316 µM, first compound 0.0316 µM
# [10] = second compound 0.316 µM, first compound 0.1 µM
# [11] = second compound 0.316 µM, first compound 0.316 µM
# [12] = second compound 0.316 µM, first compound 1 µM
# [13] = second compound 1 µM, first compound 0.0316 µM
# [14] = second compound 1 µM, first compound 0.1 µM
# [15] = second compound 1 µM, first compound 0.316 µM
# [16] = second compound 1 µM, first compound 1 µM
# [17] = second compound 3.16 µM, first compound 0.0316 µM
# [18] = second compound 3.16 µM, first compound 0.1 µM
# [19] = second compound 3.16 µM, first compound 0.316 µM
# [20] = second compound 3.16 µM, first compound 1 µM
# [21] = second compound 10 µM, first compound 0.0316 µM
# [22] = second compound 10 µM, first compound 0.1 µM
# [23] = second compound 10 µM, first compound 0.316 µM
# [24] = second compound 10 µM, first compound 1 µM
# 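Throughout, for viability, T/C: spheroids exposed to agents for seven days before readout; 100% = DMSO vehicle control wells.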
smiles,measurement,setting,value
CCN1CCN(Cc2ccc(Nc3ncc(F)c(-c4cc(F)c5nc(C)n(C(C)C)c5c4)n3)nc2)CC1 + C#Cc1c(F)ccc2cc(O)cc(-c3ncc4c(N5CC6CCC(C5)N6)nc(OCC56CCCN5CC(F)C6)nc4c3F)c12,IC50,second compound 0.0316 µM,0.502 µM
same,IC50,second compound 0.1 µM,0.526 µM
same,IC50,second compound 0.316 µM,0.524 µM
same,IC50,second compound 1 µM,0.49 µM
same,IC50,second compound 3.16 µM,0.526 µM
same,IC50,second compound 10 µM,0.31 µM
same,"viability, T/C","second compound 0.0316 µM, first compound 0.00316 µM",105%
same,"viability, T/C","second compound 0.0316 µM, first compound 0.01 µM",97.1%
same,"viability, T/C",[1],98.9%
same,"viability, T/C",[2],83.4%
same,"viability, T/C",[3],69.8%
same,"viability, T/C",[4],23.9%
same,"viability, T/C","second compound 0.1 µM, first compound 0.00316 µM",109%
same,"viability, T/C","second compound 0.1 µM, first compound 0.01 µM",102%
same,"viability, T/C",[5],92.9%
same,"viability, T/C",[6],87%
same,"viability, T/C",[7],68.9%
same,"viability, T/C",[8],28.3%
same,"viability, T/C","second compound 0.316 µM, first compound 0.00316 µM",116%
same,"viability, T/C","second compound 0.316 µM, first compound 0.01 µM",92.8%
same,"viability, T/C",[9],94%
same,"viability, T/C",[10],92.7%
same,"viability, T/C",[11],69%
same,"viability, T/C",[12],26.5%
same,"viability, T/C","second compound 1 µM, first compound 0.00316 µM",115%
same,"viability, T/C","second compound 1 µM, first compound 0.01 µM",112%
same,"viability, T/C",[13],98.7%
same,"viability, T/C",[14],81.6%
same,"viability, T/C",[15],67.1%
same,"viability, T/C",[16],27.8%
same,"viability, T/C","second compound 3.16 µM, first compound 0.00316 µM",126%
same,"viability, T/C","second compound 3.16 µM, first compound 0.01 µM",112%
same,"viability, T/C",[17],100%
same,"viability, T/C",[18],86.2%
same,"viability, T/C",[19],71.4%
same,"viability, T/C",[20],28.5%
same,"viability, T/C","second compound 10 µM, first compound 0.00316 µM",125%
same,"viability, T/C","second compound 10 µM, first compound 0.01 µM",113%
same,"viability, T/C",[21],100%
same,"viability, T/C",[22],84.4%
same,"viability, T/C",[23],48.4%
same,"viability, T/C",[24],3.09%
C[C@@H](NC(=O)c1ncnc(N)c1Cl)c1ncc(C(=O)Nc2cc(C(F)(F)F)c(Cl)cn2)s1 + C#Cc1c(F)ccc2cc(O)cc(-c3ncc4c(N5CC6CCC(C5)N6)nc(OCC56CCCN5CC(F)C6)nc4c3F)c12,IC50,second compound 0.0316 µM,6.59 µM
same,IC50,second compound 0.1 µM,6.77 µM
same,IC50,second compound 0.316 µM,6.87 µM
same,IC50,second compound 1 µM,7.39 µM
same,IC50,second compound 3.16 µM,7.73 µM
same,IC50,second compound 10 µM,6.2 µM
same,"viability, T/C",[1],120%
same,"viability, T/C",[2],151%
same,"viability, T/C",[3],149%
same,"viability, T/C",[4],150%
same,"viability, T/C","second compound 0.0316 µM, first compound 3.16 µM",99.2%
same,"viability, T/C","second compound 0.0316 µM, first compound 10 µM",22.1%
same,"viability, T/C",[5],130%
same,"viability, T/C",[6],133%
same,"viability, T/C",[7],153%
same,"viability, T/C",[8],151%
same,"viability, T/C","second compound 0.1 µM, first compound 3.16 µM",94.5%
same,"viability, T/C","second compound 0.1 µM, first compound 10 µM",27.2%
same,"viability, T/C",[9],132%
same,"viability, T/C",[10],123%
same,"viability, T/C",[11],145%
same,"viability, T/C",[12],140%
same,"viability, T/C","second compound 0.316 µM, first compound 3.16 µM",94.2%
same,"viability, T/C","second compound 0.316 µM, first compound 10 µM",28.7%
same,"viability, T/C",[13],138%
same,"viability, T/C",[14],139%
same,"viability, T/C",[15],158%
same,"viability, T/C",[16],151%
same,"viability, T/C","second compound 1 µM, first compound 3.16 µM",99.2%
same,"viability, T/C","second compound 1 µM, first compound 10 µM",32.5%
same,"viability, T/C",[17],124%
same,"viability, T/C",[18],150%
same,"viability, T/C",[19],155%
same,"viability, T/C",[20],172%
same,"viability, T/C","second compound 3.16 µM, first compound 3.16 µM",117%
same,"viability, T/C","second compound 3.16 µM, first compound 10 µM",30.7%
same,"viability, T/C",[21],136%
same,"viability, T/C",[22],145%
same,"viability, T/C",[23],154%
same,"viability, T/C",[24],166%
same,"viability, T/C","second compound 10 µM, first compound 3.16 µM",91.6%
same,"viability, T/C","second compound 10 µM, first compound 10 µM",20.5%
